Source: EP1192182B1, “PITUITARY ADENYLATE CYCLASE ACTIVATING PEPTIDE (PACAP) RECEPTOR 3 (R3) AGONISTS AND THEIR PHARMACOLOGICAL METHODS OF USE” (priority 1999, dated 2001)
Positions of bridges follow the written chain, without caps; N, C: chain ends. Non-standard residues stand in square brackets, D forms with d. Residues, ends and D or L forms follow the SMILES beside them. Nle = CCCC[C@H](N)C(=O)O

Experiments:
rat islets = assay: Insulin release from isolated rat islets; format: cell-based, Sprague-Dawley rats; settings: peptide 10nM for 2hrs, 8mM glucose; % of [insulin] in 8mM glucose alone
Experimental: Sprague Dawley rats (275-320 g) were used as the source of donor islets. Briefly, the pancreas was filled with 10 ml of cold reconstituted Liberase RI (Boehringer Manheim), harvested and incubated with additional 5 ml enzyme solution in water bath for 30 minutes. Tissue suspension was washed twice with cold 10% FBS/Hanks buffer (Gibco), resuspended in 8 ml 25% ficoll (Sigma) and then layered with 5 ml each of 23%, 20% and 11 % ficoll. The islets in the 20% layer after centrifugation were removed, washed twice with cold 10% FBS/Hank buffer and resuspended in 10% FBS/RPMI 1640 media (Sigma).
Islet insulin release: Rat islets were isolated from Sprague-Dawley rats as described in example 1 and treated with either vehicle or specified peptide (10nM) for 2hrs. Insulin concentration in the medium was measured with the Linco rat insulin RIA kit. Glucose concentration in the medium was 8mM. The data are expressed as % of [insulin] in 8mM glucose alone. No polypeptide-induced Increases in insulin concentration were observed al 3 mM glucose; thus, the insulin releasing activity of these polypeptides are glucose-dependent. It should be noted that the following Table includes data for polypeptides which are not part of the present invention.

[1] = Airway hyperresponsiveness in the primate acute asthma model; format: in vivo, cynomolgus monkeys (Macaca fascicularis)
Experimental: Male cynomolgus monkeys (Macaca fascicularis) used in this study were maintained at constant temperature and humidity, with a twelve hour light cycle. They were fed twice daily, except on an experimental day when food was withheld the night before the procedure. Water was available ad lib at all times.
Airway hyperresponsiveness (AHR)(baseline) was measured 1 week before the control (no treatment) antigen challenge, and again 24hrs after antigen challenge. Antigen-induced airway hyperresponsiveness was measured by a fall in the PC100 (the concentration of methacholine required to cause a 100% increase in lung resistance) at 24hr compared to baseline. After 2 weeks rest, another baseline measurement of AHR was performed. […] AHR was again measured, and the fall in PC100 with treatment was compared to that without treatment. […]
The endotracheal tube was connected to a Harvard Ventilator adjusted to deliver 30-35 breaths per minute. Airflow was measured by a Fleisch pneumotachograph and thoracic pressure was measured by a validyne pressure transducer (as the difference between the pressure at the distal end of the et tube and room pressure). […]
Antigen challenge: This was an inhalation challenge with Ascaris suum. […] 30 breaths of antigen were administered after which the acute bronchoconstriction was monitored for 15min. […]

[2] = Intraperitoneal glucose tolerance test (IPGTT), plasma glucose; format: in vivo, Wistar rats; settings: plasma glucose area under the curve after IPGTT (1 g/kg glucose), % of vehicle; 1 nmol/kg peptide i.v.
Experimental: Wistar rats are fasted overnight and then anesthetized with pentobarbital. The rats were eye-bled (zero time) and the peptide ( in 1% human albumin) was injected into the tail vein. Five minutes later, 1 g/kg of glucose (in saline) was injected intraperitoneally, and the rats were eye-bled after 15, 30 and 60 minutes. Plasma glucose levels were determined using the Technicon Axon autoanalyzer, Bayer Diagnosics division of Bayer Corporation, Tarrytown NY, operated using Method No. SM4-2143F90 "Glucose".
In accordance with the protocol of example 2 above, overnight fasted Wistar rats were anesthetized with pentobarital; i.v. injected with glucose ± peptide and eye bled after 1 minute. N=12 rats/group. […] The peptide or vehicle was given i.v. followed by a glucose load given i.p. in accordance with example 3. The plasma glucose was followed over the time period indicated.
Wistar rats were fasted overnight and then anesthetized with Pentobarbital. The rats were eye-bled (zero time) and the peptide (in 1 % human albumin) was injected subcutaneously. Five minutes later, 1 g/kg of glucose (in saline) was injected intraperitoneally, and the rats were eye-bled after 30 minutes.
Plasma glucose: Data are expressed as % of vehicle of plasma glucose area under the curve after IPGTT (1 g/kg glucose) after treatment with 1 nmol/kg dose of the peptide. […] The present Inventors have shown for the first time that this is because the effects of R2 and R3 on glucose tend to cancel each other out. […] Therefore, R3-selectlvlty appears to be a desirable attribute for medicaments which are to be employed in achieving blood glucose reduction, for treatment of type 2 diabetes.

[3] = test system: guinea pig tracheal smooth muscle; settings: Bolin et al 1995; US 5,677,419; cited from earlier work
PACAP-R3 = biological target: T1, PACAP-R3 (Homo sapiens, UniProt P41587); settings: literature; cited from earlier work
T1 sequence (P41587 24-438): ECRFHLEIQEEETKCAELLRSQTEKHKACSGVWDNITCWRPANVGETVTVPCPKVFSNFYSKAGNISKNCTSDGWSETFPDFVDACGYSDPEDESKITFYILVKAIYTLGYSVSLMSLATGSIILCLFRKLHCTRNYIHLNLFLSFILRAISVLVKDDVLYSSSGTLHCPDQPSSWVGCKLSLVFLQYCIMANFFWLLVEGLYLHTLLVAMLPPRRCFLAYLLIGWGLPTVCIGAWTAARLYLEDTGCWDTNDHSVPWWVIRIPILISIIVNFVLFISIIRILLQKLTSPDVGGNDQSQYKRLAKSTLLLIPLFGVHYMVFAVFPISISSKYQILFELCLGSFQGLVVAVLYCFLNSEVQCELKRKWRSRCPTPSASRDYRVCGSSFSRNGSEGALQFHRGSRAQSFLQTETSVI

CCCC[C@H](NC(=O)[C@H](CCC(N)=O)NC(=O)[C@H](CCCCN)NC(=O)[C@H](CCCNC(=N)N)NC(=O)[C@H](CC(C)C)NC(=O)[C@H](CCCCN)NC(=O)[C@@H](NC(=O)[C@H](Cc1ccc(O)cc1)NC(=O)[C@H](CC(N)=O)NC(=O)[C@H](CCC(=O)O)NC(=O)[C@@H](NC(=O)[C@H](Cc1ccccc1)NC(=O)[C@@H](NC(=O)[C@H](C)NC(=O)[C@H](CC(=O)O)NC(=O)[C@H](CO)NC(=O)[C@H](Cc1c[nH]cn1)NC(C)=O)C(C)C)[C@@H](C)O)[C@@H](C)O)C(=O)N[C@@H](C)C(=O)N[C@@H](C)C(=O)N[C@@H](CCCCN)C(=O)N[C@H]1CCCCNC(=O)C[C@@H](C(=O)N[C@@H](CC(C)C)C(=O)N[C@@H](CCCCN)C(=O)N[C@@H](CCCCN)C(=O)NCC(=O)NCC(=O)N[C@H](C(N)=O)[C@@H](C)O)NC(=O)[C@H](CC(N)=O)NC(=O)[C@H](CC(C)C)NC(=O)[C@H](Cc2ccc(O)cc2)NC1=O [Peptide R3P0] (Ac-HSDAVFTENYTKLRKQ[Nle]AAKKYLNDLKKGGT-NH2; lactam 21-25 (inferred))
Islet Insulin Release (% of Basal) (rat islets): 264 % of Basal | Delta log10 PC100, Mean, Treated ([1]; 0.6ug/mg aerosol 10 minutes before antigen challenge, +24hr minus baseline, N 4): -0.150 | % Inhibition of induced AHR ([1]; 0.6ug/mg aerosol, P(Treated vs Control) 0.240): 54% | Plasma Glucose (% of Basal) i.v. [2]: 77 % of Basal | relaxing guinea pig tracheal smooth muscle [3]: active | PACAP-R3 selectivity (PACAP-R3): greater than 100 fold
